This assay concerns Rhizoctonia solani. The assay can be described thus: Soybean seed treatment test in soil contaminated by Rhizoctonia solani (disease control efficacy). In kind it is in vivo, Rhizoctonia solani on soybean (variety: Natto shoryu). The settings on record: seed treatment with carboxamide compound alone 0.2 g/100 kg of seeds; soybean cultivated 20 days in contaminated soil; versus non-treated plot. As to the method:
A cyclohexanone solution (100 microL) containing prescribed amount (weight) of a test compound was applied on seeds of soybean (variety: Natto shoryu) (10 g) by using a rotary apparatus for seed treatment (Seed dresser, manufactured by Hans-Ulrich Hege GmbH).
One day after the treatment, plastic pot was filled with soil contaminated by Rhizoctonia solani, and the seeds treated with the test compounds were seeded in the soil and cultivated in a glass-greenhouse for 20 days (hereinafter referred to as “treated plot”).
Thereafter, the presence of disease caused by Rhizoctonia solani in the young plants which germinated from each seed was observed and disease severity was calculated according to the following calculation formula (1).
On the other hand, seeds of soybean which were not treated as above were cultivated in the same way as above (hereinafter referred to as “non-treated plot”) and the disease severity in “non-treated plot” was calculated in the same way as above “treated plot”. On the basis of the above disease severity in “treated plot” and “non-treated plot”, efficacy in “treated plot” was evaluated according to the following calculation formula (2). […]

For the compound `CC1CC(C)(C)c2cccc(NC(=O)c3cn(C)nc3C(F)F)c21` (stereo not shown) [carboxamide compound (I)], the “efficacy (%)” value is 42.1%.

The record behind these values is patent US9232797B2, “Pesticidal composition and its use” (SUMITOMO CHEMICAL COMPANY, LIMITED, priority 2010, dated 2016).
